Results on one compound are retold here after patent US12329739B2, “Isoflavonoid compounds and methods for the treatment of cancer” (Aardvark Therapeutics, Inc., priority 2010, dated 2025).

A value given as a limit tells only on which side of the number the result lay.

One assay deals with LNCaP. Description: MTT proliferation assay, LNCaP. The conditions noted are these: Homo sapiens, Prostate, 120 h of exposure. It counts as cell-based. The procedure: (§1) Proliferation Assays. IC50 values were determined for each cell line. Cells were seeded in 96-well plates at an appropriate cell density as determined from growth kinetics analysis and cultured for 5 days in the absence and presence of the test compounds. Cell proliferation was assessed after the addition of 20 μl of 3-4,5 dimethylthiazol-2,5-diphenyl tetrazolium bromide (MTT, 5 mg/ml in PBS, Sigma) for 5 hrs at 37° C. according to manufacturer's instructions. IC50 values were calculated from semi-log plots of % of control proliferation on the y-axis against log dose on the x-axis.
(§2) Anti-proliferative Activity of Isoflavonoid Derivatives. IC50 values were determined for each cell line after 120 h of exposure.

For the next assay, the system named is R-182. Description: MTT proliferation assay, R-182. The conditions noted are these: Ovarian, R-182, 120 h of exposure. It counts as cell-based.
Excerpt: Tissue culture. The multidrug resistant primary epithelial ovarian cancer cell line R-182 TARA was a gift from Dr. Gil Mor (Yale University, New Haven, CT, USA). This cell line was derived by explant from ovarian tumors and cultured as previously described. All other cell lines were purchased from American Type Culture Collection (ATCC, Manassas, VA, USA) with the exception of MKN1, HuH-7, JHH-1, which were purchased from the Japanese Collection of Research Bioresources (JCRB, Osaka, Japan), and OE19 which was purchased from the European Collection of Cell Cultures (ECACC, Salisbury, UK).
as §1, §2

The subject of another assay is CP70. The assay can be described thus: MTT proliferation assay, CP70. Type of assay: cell-based. In a few lines:
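Cells seeded at densities set from growth kinetics and cultured 5 days (120 h) with or without test compounds. MTT added for 5 hrs at 37° C. IC50 taken from semi-log plots of % control proliferation versus log dose.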
(In general: Tetrazolium assays rely on reduction of a dye to a coloured formazan, in cell work by metabolically active cells.)

A further assay concerns NCI-H460. Description: MTT proliferation assay, NCI-H460. The conditions noted are these: Homo sapiens; NSCLC, NCI-H460, 120 h of exposure. Type of assay: cell-based, human. The procedure: The human non-small cell lung adenocarcinoma lines NCI-H1299 (CRL-5803), NCI-H460 (HTB-177), NCI-H358 (CRL-5807), NCI-H838 (CRL-5844), the human colorectal adenocarcinoma lines COLO 205 (CCL-222), HCT-15 (CCL-225) and the human gastric cancer cell line NCI-N87 (CRL-5822) were cultured in RPMI 1640 medium containing 2 g/L sodium bicarbonate (Hyclone/Invitrogen) supplemented with 2 mM L-glutamine (Gibco) 1 mM sodium pyruvate (Sigma), 10 mM HEPES (Sigma) and 4500 mg/L glucose (Sigma). The human non-small cell lung adenocarcinoma line NCI-H2126 (CCL-256) was cultured in DMEM:F12(1:1) (Hyclone/Invitrogen) containing 2.5 mM L-glutamine 2.4 g/L sodium bicarbonate supplemented with 5% fetal bovine serum (FBS), an additional 2 mM L-glutamine, 15 mM HEPES, 0.005 mg/ml insulin (Sigma), 0.01 mg/ml transferrin (Sigma), 30 nM sodium selenite (Sigma), 10 nM hydrocortisone (Sigma) and 10 nM beta-estradiol (Sigma). The human colorectal adenocarcinoma line HT-29 (HTB-38) and the human gastric cancer cell lines OE-19 (#96071721) and MKN1 (JCRB0252) were cultured in RPMI 1640 media supplemented with 2 mM L-glutamine.
as §1, §2

Another assay relates to CALU3. Description: MTT proliferation assay, CALU3. It counts as cell-based. The conditions noted are these: Homo sapiens, Calu-3; NSCLC, CALU3, 120 h of exposure. The procedure: as §1, §2
Assay [1] concerns A2780 ovarian cancer cells. The assay can be described thus: Combination with carboplatin, proliferation of A2780 cells. It counts as cell-based. The method, then: In vitro toxicity in normal and cancer cells. Cells were seeded in 96-well plates at an appropriate cell density as determined from growth kinetics analysis. Depending on the plating efficiency and lag phase of individual cell lines, cells were allowed to plate down prior to drug exposure. Intra-experimental single agent controls were included to ensure IC50 values obtained for each cell line matched previous IC50 determinations. Four analogue concentrations were employed in each analysis. Analogue concentrations used in each assay were chosen based on IC50 values, which formed the top concentration of analogue used. Subsequent concentrations were chosen based on simple ½ or 1/10 dilutions of the top analogue concentration employed (i.e. 2, 1, 0.5, 0.25 μM). Nine 1/10 serial dilutions of chemotherapeutic were employed with the top chemotherapeutic concentration being 50 μM.
For combined analysis, analogue concentrations were held constant through 1/10 serial dilutions of chemotherapeutic in growth medium (top chemotherapeutic concentration employed was 50 μM). Combined cultures were cultured for 5 days.
The sequence of administration effect of each agent on chemotherapeutic IC50 values was assessed by exposing plated cells to a single agent in sequence for 24 hr. To assess the isoflavonoid derivative→chemotherapeutic sequence, plated cells were first exposed to the appropriate analogue concentrations and incubated at 37° C. for 24 hr. Cells were washed with growth medium and then exposed to the appropriate chemotherapeutic concentrations and incubated for 24 hr. Cells were then washed and incubated for a further 3 days. To assess the chemotherapeutic→isoflavonoid derivative sequence, the procedure was reversed.
Cell proliferation was assessed after the addition of 20 μl of 3-4,5 dimethylthiazol-2,5-diphenyl tetrazolium bromide (MTT, 2.5 mg/ml in PBS, Sigma) for 3-4 hrs at 37° C. according to manufacturer's instructions. IC50 values were calculated from semi-log plots of % of control proliferation on the y-axis against log dose on the x-axis.
3-D model analysis of the cytotoxic interaction between drug A and drug B enables the representation of predicted inhibitory effect of two drugs in combination in 3 dimensions to reveal actual regions of synergy or antagonism. The 3D synergy plots are based on a theory of “Theoretical Additivity” (TA or […]) as outlined by Kanzawa et al. Theoretical Additivity was calculated from the cytotoxicities of drug A and drug B as monotherapies using the following formula which assumes the drugs are mutually exclusive inhibitors: […]
The TA is calculated for each combination of drug concentrations and subtracted from the observed experimental effect for each combination to give a measurement of synergistic or enhanced action.
Combination index (CI) analysis, which employs the median-effect principle correlating drug dose to cytotoxicity, was also employed to assess synergy. The median-effect equation is utilized to calculate the dose of a drug that inhibits “x” percent of cells (Chou and Talalay, 1984). D=Dm[fa/(1−fa)]^1/m
In vitro Assessment of Combination of Optically Active Compound 31 and Carboplatin. Combination studies employed both 24 hr concurrent exposure, and 24 hr sequential exposure (racemic compound 32→Carboplatin) regimens. In both studies, four analogue concentrations (0.25, 0.5, 1 and 5 μM) were held constant against titrated carboplatin. When 1 and 5 μM of compound 32 was assessed in combination with the lowest concentration of carboplatin employed in this study (0.4 μM), no IC50 for carboplatin was achieved due the high levels of cell kill observed (30-40% of control).

Assay [2] deals with A2780 ovarian cancer cells. Described as above. It counts as cell-based. The conditions noted are these: 0.5, 1 and 5 μM of compound plus 0.4 μM carboplatin.

Take `Oc1ccc([C@H]2c3ccc(O)cc3OC[C@H]2c2ccc(O)cc2)cc1` [Compound 31, d-cis-3-(4-hydroxyphenyl)-4-(4-hydroxyphenyl)chroman-7-ol]: the half-inhibitory concentration (IC50) (as a rule, the concentration needed to halve the response being measured) with LNCaP is 150 to 500 nM; with R-182, at most 150 nM; with CP70 (120 h, Ovarian, CP70, 120 h of exposure) it was 510 to 1500 nM; in the assay with CP70 (Table 2, Ovarian, CP70, 120 hrs of exposure), 150 to 500 nM; in the assay on NCI-H460, 510 to 1500 nM; with CALU3, 150 to 500 nM. The “enhancement of the anti-cancer effect of carboplatin” value in assay [1] (0.25 μM of compound, A2780, depending on exposure regimen (24 hr concurrent or sequential)) is reported as 7-11 fold. Moreover, the “potency of the inhibition of proliferation compared with compound 34” value in assay [1] (0.5 μM of compound in combination with carboplatin, A2780) is recorded as “superior”. In assay [1] (3D method of Kanzawa, 12.5 μM carboplatin, A2780), the “compound concentration giving maximal activity enhancement with carboplatin” value was 0.25 µM. In assay [1] (A2780 cell line, 31 compared with compound 32), the “activity enhancement in combination with carboplatin” value is reported as “superior in its ability to augment carboplatin toxicity”. For the same compound, in assay [1] (sequential exposure (24 h), 0.25 μM of compound followed by carboplatin), the “retardation of A2780 cell proliferation compared with compound 34” value is “superior retardation of A2780 cell proliferation”. For the same compound, the “cell kill level observed (no IC50 for carboplatin achieved)” value in assay [2] is on record as 25-40 % of control.
